# Entries after “also recorded” stand apart in the source; their conditions may differ. Like-named read-outs stand apart in the source and are kept apart here.
# Biological target: T1, TRPV1 (Rattus norvegicus, UniProt O35433)
# T1 construct: FLAG; expressed in transfected cells
# Assay: Whole-cell patch clamp of TRPV1 currents in HEK293 cells overexpressing TRPV1 (HEK293-V1)
# Format: cell-based
# Conditions: for inward current induced: cannabinoid at 50 (FIGS. 3A, 4A, 6A, 7A), applied at data point 60; for time course of induced TRPV1 current (sustained or inactivating): cannabinoid at 50, 5 μM myrcene or 1 μM capsaicin; for current development and inactivation: constant external calcium, internal Ca2+ 0 nM, 180 nM, 620 nM, FCa (FIGS. 23, 24); for Max I amplitude: 120 s, Ca 1 mM external, unbuffered internal calcium; for attainment of the pore-dilated state: 50 μM, induction time 25 hours (FIGS. 37-40C)
# Description: HEK TRexTRPV1 were cultured in DMEM, 10% Fetal Bovine Serum, 2 mM Lglutamine, 10 μg/ml Blasticidin (Calbiochem, San Diego Calif.), 400 μg/ml Zeocin (InvivoGen, San Diego Calif.), where indicated transgene expression was induced using 1 μg/ml Tetracycline for 16-24 hrs. Unless otherwise indicated, basal expression of TRPV1 without induction was sufficient for these studies, and comparisons were made to untransfected HEK where needed. HEKTRex293 over-expressing human TRPV2, human TRPA1 and human TRPM8 were obtained from SB Drug Discovery (Glasgow, Scotland) and cultured as described above. The cannabinoids and terpenes were assayed in HEK cells that have been transfected with the TRPV1 ion channel protein. These cells are called HEK293-V1 cells.
# This technique is used to study ionic currents from HEK293-V1. The voltage across the cell membrane is controlled and the ionic currents associated with changes in voltage are measured. A micropipette tip is pulled to a few micrometers in diameter followed by heating the tip to produce a smooth surface that assists in forming a high resistance seal with the cell membrane. To obtain this high resistance seal, the micropipette is pressed against a cell membrane and suction is applied. The membrane then fuses onto the glass surface creating a high resistance in the gigaohm range. This makes it possible to isolate electronically the ionic currents measured across the membrane patch or across the entire cell.
# Patch-clamp experiments were performed in the whole-cell configuration at 21-25° C. Patch pipettes had resistances of 2-3 MΩ. Data was acquired with PatchMaster software (HEKA, Lambrecht, Germany), controlling an EPC-9 amplifier. Voltage ramps of 50 ms spanning the voltage range from −100 to 100 mV were delivered from a holding potential of 0 mV at a rate of 0.5 Hz over a period of 500 ms to 180 seconds (3 minutes). Voltages were corrected for a liquid junction potential of 10 mV. Currents were filtered at 2.9 kHz and digitized at 100 μs intervals. Capacitive currents were determined and corrected before each voltage ramp. The development of currents for a given potential was extracted from individual ramp current records by measuring the current amplitudes at voltages of −80 mV and +80 mV. Data were analyzed with FitMaster (HEKA, Lambrecht, Germany), and IgorPro (WaveMetrics, Lake Oswego, Oreg., USA). Where applicable, statistical errors of averaged data are given as mean±s.e.m with n determinations. The activated current amplitudes are analyzed by nA rather than pA/pF. […] Also the cell size selected for patching was in the 9 -12 pF range.
# For patch-clamp recordings, HEK293 cells were kept in a standard sodium-based external Ringer's solution containing (mM): 140 NaCl, 1 CaCl2, 2 MgCl2, 2.8 KCl, 11 glucose, 10 HEPES-NaOH with a pH of 7.2 and osmolarity of 300 mOsmol. To assess the effects of external Calcium (Ca) on TRPV1 inactivation kinetics, Ca at different levels were tested including 0, 1, and 3 mM. In Experiments with zero external Ca, EGTA 10 mM was added and the Na concentration was lowered to 130 mM to maintain standard osmotic conditions at 300 mOsmol. For rapid external solution application and exchanges we used the SmartSquirt delivery system (Auto-Mate Scientific, San Francisco Calif., USA) that included four cryo tubes allowing for solution exchanges within one patch. This system included a ValveLink TTL interface between the electronic valves and the EPC10 amplifier (HEKA, Lambrecht, Germany). This electronic configuration allowed for programmable solution changes via the PatchMaster software (HEKA, Lambrecht, Germany).
# [1] = CBD-induced current, internal Ca2+ 0, external Ca2+ 0 mM
# [2] = CBD-induced current, internal Ca2+ 0, external Ca2+ 1 mM
# [3] = CBD-induced current, internal Ca2+ 0, external Ca2+ 3 mM
# [4] = CBD-induced current, internal Ca2+ 180 nM, external Ca2+ 0 mM
# [5] = CBD-induced current, internal Ca2+ 180 nM, external Ca2+ 1 mM
# [6] = CBD-induced current, internal Ca2+ 180 nM, external Ca2+ 3 mM
# [7] = CBD-induced current, internal Ca2+ >620 nM (free Ca2+), external Ca2+ 0 mM
# [8] = CBD-induced current, internal Ca2+ >620 nM (free Ca2+), external Ca2+ 1 mM
# [9] = CBD-induced current, internal Ca2+ >620 nM (free Ca2+), external Ca2+ 3 mM
# [10] = after cannabinoid at 50 (voltage ramp)
# [11] = calculated from Imax per dose, HEK-TRPV1 patch clamp, read-out: EC50 at TRPV1
# T1 sequence (O35433 whole entry): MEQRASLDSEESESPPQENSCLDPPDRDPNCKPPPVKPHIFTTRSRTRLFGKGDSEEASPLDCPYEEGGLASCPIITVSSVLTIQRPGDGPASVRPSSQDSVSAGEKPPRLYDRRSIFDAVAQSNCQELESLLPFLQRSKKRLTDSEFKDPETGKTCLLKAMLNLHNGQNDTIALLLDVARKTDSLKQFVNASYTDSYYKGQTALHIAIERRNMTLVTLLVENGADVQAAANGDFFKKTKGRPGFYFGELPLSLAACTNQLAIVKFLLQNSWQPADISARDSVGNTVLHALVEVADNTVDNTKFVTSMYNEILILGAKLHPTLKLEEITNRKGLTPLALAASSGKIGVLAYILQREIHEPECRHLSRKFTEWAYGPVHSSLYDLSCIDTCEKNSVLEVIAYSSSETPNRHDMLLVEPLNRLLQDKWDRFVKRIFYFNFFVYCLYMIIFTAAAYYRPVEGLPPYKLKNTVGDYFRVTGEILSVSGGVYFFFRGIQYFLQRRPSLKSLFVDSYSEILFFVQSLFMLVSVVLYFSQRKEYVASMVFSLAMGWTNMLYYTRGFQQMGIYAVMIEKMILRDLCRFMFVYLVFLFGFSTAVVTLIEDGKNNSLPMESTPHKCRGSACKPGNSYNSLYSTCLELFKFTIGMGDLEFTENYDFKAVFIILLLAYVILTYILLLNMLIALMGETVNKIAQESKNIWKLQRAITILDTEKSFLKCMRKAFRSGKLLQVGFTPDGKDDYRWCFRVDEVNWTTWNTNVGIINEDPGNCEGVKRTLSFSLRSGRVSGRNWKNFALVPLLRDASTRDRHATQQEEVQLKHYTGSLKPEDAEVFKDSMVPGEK
structure (smiles),measurement,setting,value
"C=C(C)[C@@H]1CCC(C)=C[C@H]1c1c(O)cc(CCCCC)cc1O [CBD, Cannabidiol]",EC50,,30 µM
same,type of TRPV1 current recorded,"CBD 30 μM, Ca 0 internally and externally",outwardly rectifying current
same,transition to the pore-dilated state,"CBD up to 150 μM, induction times 0-25 hours, currents about 10 nA",no transition to the pore-dilated state
same,Max rate of activation,"CBD-induced current (30 μM, FIG. 22), internal Ca2+ 0, external Ca2+ 0 mM",1.1% per S
same,Max rate of activation,"CBD-induced current (30 μM, FIG. 22), internal Ca2+ 0, external Ca2+ 1 mM",1.9% per S
same,Max rate of activation,"CBD-induced current (30 μM, FIG. 22), internal Ca2+ 0, external Ca2+ 3 mM",3% per S
same,Rate of inactivation,[1],0.41% per S
same,Time to max amplitude,[1],136 S
same,Rate of inactivation,[2],0.82% per S
same,Time to max amplitude,[2],94 S
same,Rate of inactivation,[3],0.94% per S
same,Time to max amplitude,[3],82 S
same,Max rate of activation,[4],1.6% per S
same,Rate of inactivation,[4],0.67% per S
same,Time to max amplitude,[4],108 S
same,Max rate of activation,[5],1.6% per S
same,Rate of inactivation,[5],0.71% per S
same,Time to max amplitude,[5],116 S
same,Max rate of activation,[6],2.4% per S
same,Rate of inactivation,[6],0.72% per S
same,Time to max amplitude,[6],92 S
same,Max rate of activation,[7],0.83% per S
same,Rate of inactivation,[7],0.49% per S
same,Time to max amplitude,[7],160 S
same,Max rate of activation,[8],1.5% per S
same,Rate of inactivation,[8],1.1% per S
same,Time to max amplitude,[8],120 S
same,Max rate of activation,[9],2.7% per S
same,Rate of inactivation,[9],1% per S
same,Time to max amplitude,[9],88 S
same,IV relationship / TRPV1 channel state,[10],outwardly-rectifying IV curve consistent with un-dilated TRPV1 (state 1)
same,inward current induced,,4-6 nA
same,time course of induced TRPV1 current (sustained or inactivating),,sustained
same,current development and inactivation,,"gradual current development, which inactivated only when internal calcium is buffered above zero"
same,Rate of inactivation,dose 10 micromolar,0 dpsec^−1
same,Time to max,dose 10 micromolar,178 s
same,Max I amplitude,dose 10 micromolar,0.8 nA
same,Rate of inactivation,dose 30 micromolar,0 dpsec^−1
same,Time to max,dose 30 micromolar,180 s
same,Max I amplitude,dose 30 micromolar,2.2 nA
same,Rate of inactivation,dose 50 micromolar,.02 dpsec^−1
same,Time to max,dose 50 micromolar,130 s
same,Max I amplitude,dose 50 micromolar,1.6 nA
same,Rate of inactivation,dose 150 micromolar,.042 dpsec^−1
same,Time to max,dose 150 micromolar,96 s
same,Max I amplitude,dose 150 micromolar,3.5 nA
"C=C(C)[C@@H]1CCC(C)=C[C@H]1c1c(O)cc(CCC)cc1O [CBDV, Cannabidivarin]",attainment of the pore-dilated state,,lack of attainment of the pore-dilated state
same,IV relationship / TRPV1 channel state,[10],outwardly-rectifying IV curve consistent with un-dilated TRPV1 (state 1)
same,EC50,[11],56 µM
same,inward current induced,,2-3 nA
same,time course of induced TRPV1 current (sustained or inactivating),,sustained
same,Rate of inactivation,dose 10 micromolar,0 dpsec^−1
same,Time to max,dose 10 micromolar,148 s
same,Max I amplitude,dose 10 micromolar,0.5 nA
same,Rate of inactivation,dose 30 micromolar,.013 dpsec^−1
same,Time to max,dose 30 micromolar,136 s
same,Max I amplitude,dose 30 micromolar,1.5 nA
same,Rate of inactivation,dose 50 micromolar,.009 dpsec^−1
same,Time to max,dose 50 micromolar,82 s
same,Max I amplitude,dose 50 micromolar,0.9 nA
same,Rate of inactivation,dose 150 micromolar,.14 dpsec^−1
same,Time to max,dose 150 micromolar,62 s
same,Max I amplitude,dose 150 micromolar,3.9 nA
"CCCCCc1cc(O)c(C/C=C(\C)CCC=C(C)C)c(O)c1 [CBG, Cannabigerol]",attainment of the pore-dilated state,,lack of attainment of the pore-dilated state
same,IV relationship / TRPV1 channel state,[10],outwardly-rectifying IV curve consistent with un-dilated TRPV1 (state 1)
same,EC50,[11],19 µM
same,inward current induced,,4-5 nA
same,time course of induced TRPV1 current (sustained or inactivating),,sustained
same,Rate of inactivation,dose 10 micromolar,0 dpsec^−1
same,Time to max,dose 10 micromolar,120 s
same,Max I amplitude,dose 10 micromolar,0.2 nA
same,Rate of inactivation,dose 30 micromolar,.007 dpsec^−1
same,Time to max,dose 30 micromolar,94 s
same,Max I amplitude,dose 30 micromolar,0.6 nA
same,Rate of inactivation,dose 50 micromolar,.008 dpsec^−1
same,Time to max,dose 50 micromolar,96 s
same,Max I amplitude,dose 50 micromolar,0.7 nA
same,Rate of inactivation,dose 150 micromolar,.014 dpsec^−1
same,Time to max,dose 150 micromolar,92 s
same,Max I amplitude,dose 150 micromolar,0.9 nA
"CCCCCc1cc(O)c2c(c1)OC(C)(C)c1ccc(C)cc1-2 [CBN, Cannabinol]",EC50,,36 µM
same,inward and outward current magnitude compared to 50 μM CBN,10 μM CBN,greater inward and outward current magnitude
same,IV relationship / TRPV1 channel state,after 10 μM CBN,becomes more linear; also recorded: partial state transition from state 1 to state 2
same,IV relationship / TRPV1 channel state,[10],outwardly-rectifying IV curve consistent with un-dilated TRPV1 (state 1)
same,inward current induced,,0.5-2 nA
same,time course of induced TRPV1 current (sustained or inactivating),,rapidly inactivating
same,current development and inactivation,,"activated quickly, but rapidly inactivated with a slower kinetic profile"
same,Rate of inactivation,dose 10 micromolar,0 dpsec^−1
same,Time to max,dose 10 micromolar,174 s
same,Max I amplitude,dose 10 micromolar,0.4 nA
same,Rate of inactivation,dose 30 micromolar,0 dpsec^−1
same,Time to max,dose 30 micromolar,176 s
same,Max I amplitude,dose 30 micromolar,0.6 nA
same,Rate of inactivation,dose 50 micromolar,.010 dpsec^−1
same,Time to max,dose 50 micromolar,120 s
same,Max I amplitude,dose 50 micromolar,1.5 nA
same,Rate of inactivation,dose 150 micromolar,.019 dpsec^−1
same,Time to max,dose 150 micromolar,82 s
same,Max I amplitude,dose 150 micromolar,1.8 nA

# — patent publication US20220387375A1, “TRPV1 ACTIVATION-MODULATING COMPLEX MIXTURES OF CANNABINOIDS AND/OR TERPENES” (GBS Global Biopharma, Inc., priority 2018, published 2022)
